“And” between values parts separate entries of the source, which are not always exact repeats. Equal entries are not always repeated. Where two headings read alike, the source gives them in different places.
How the values were obtained:
Assay type in all cases: cell-based
[1] = test system: A549 (human lung carcinoma); experiment: In vitro cytotoxicity, MTT test; details: MTT, 72 h, read-out: Cytotoxicity IC50, A549
Procedure: (§1) Anticancer activity of selenopheno[h]chromenes was tested in vitro using cytotoxicity assay. […] About 2-9·10^4 cells/mL (depending on line nature) were placed in 96-well plates immediately after compounds were added to the wells. Untreated cells were used as a control. The plates were incubated for 72 h, 37° C., 5% CO2. The number of surviving cells was determined using 3-(4,5-dimethylthiazol-2-yl)-2,5-diphenyltetrazolinium bromide (MTT). MTT-test: after incubating culture medium was removed and 200 μL fresh medium with 10 mM HEPES was added in each well of the plate, than 20 μL MTT (2 mg/mL in HBSS) was added. After incubation (3 hr, 37° C., 5% CO2), the medium with MTT was removed and 200 μL DMSO were added at once to each sample. The samples were tested at 540 nm on Anthos HT II photometer.

[2] = test system: CCL-8 (mouse sarcoma); experiment: In vitro cytotoxicity, MTT test; details: 72 h, read-out: Cytotoxicity IC50, CCL-8
Procedure: as §1

[3] = test system: HT-1080 (human fibrosarcoma); experiment: In vitro cytotoxicity, MTT test; details: HT-1080, MTT, 72 h, read-out: Cytotoxicity IC50, HT-1080
Procedure: as §1

[4] = test system: HepG2 (human hepatocellular carcinoma); experiment: In vitro cytotoxicity, MTT test; details: HepG2, MTT, 72 h, read-out: Cytotoxicity IC50, HepG2
Procedure: as §1

[5] = test system: MCF-7 (human breast adenocarcinoma, estrogen-positive); experiment: In vitro cytotoxicity, MTT test; details: MCF7, MTT, 72 h, read-out: Cytotoxicity IC50, MCF-7
Procedure: as §1

[6] = test system: MDA-MB-435s (human melanoma); experiment: In vitro cytotoxicity, MTT test; details: MTT, 72 h, read-out: Cytotoxicity IC50, MDA-MB-435s
Procedure: as §1

[7] = test system: MES-SA (human uterus sarcoma); experiment: In vitro cytotoxicity, MTT test; details: MTT, 72 h, read-out: Cytotoxicity IC50, MES-SA
Procedure: as §1

[8] = test system: MG-22A (mouse hepatoma); experiment: In vitro cytotoxicity, MTT test; details: MTT, 72 h, read-out: Cytotoxicity IC50, MG-22A
Procedure: as §1

[9] = test system: SH-SY5Y (human neuroblastoma); experiment: In vitro cytotoxicity, MTT test; details: 72 h, MTT, read-out: Cytotoxicity IC50, SHSY5Y
Procedure: as §1

[10] = Basal cytotoxicity test, Neutral Red Uptake (NRU) assay; details: for LD50 at 24 h: mouse, po, acute oral LD50 calculated from 3T3 NRU IC50 by regression formula, read-out: Basal cytotoxicity Estimated* LD50; for IC50 at 24 h: normal mouse embryo fibroblasts, read-out: Cytotoxicity IC50, 3T3
Procedure: In parallel, the borderline concentration relevant to the highest tolerated dose has been determined for each compound using the NIH 3T3 (mouse embryo fibroblasts) cell line and the basal cytotoxicity obtained has then been used to predict the starting doses for in vivo acute oral LD50 values in rodents.
the Neutral Red Uptake (NRU) assay was performed according to the standard protocol of Stokes modified by the NICEATM-ECVAM validation study. The NRU cytotoxicity assay procedure is based on the ability of viable cells to incorporate and bind Neutral Red, a supravitally dye. Balb/c 3T3 (Mouse Swiss Albino embryo fibroblast) cells (9000 cells/well) were placed into 96-well plates for 24 h in Dulbecco's modified Eagle's (DMEM) medium containing 5% fetal bovine serum. The cells were then exposed to the test compounds over a range of […] concentrations (1000, 316, 100, 31, 10, 3, 1 μg/ml) for 24 h. Untreated cells were used as a control. After 24 h, the medium was removed from all plates. Then, 250 μL of Neutral Red solution were added (0.05 mg/mL NR in DMEM 24 h pre-incubated at 37° C. and then filtered before use through 0.22-μm syringe filter). Plates were incubated for 3 h and then cells were washed three times with PBS. The dye within viable cells was released by extraction with a mixture of acetic acid, ethanol and water (1:50:49). Absorbance of Neutral Red was measured using a spectrophotometer multiplate reader (TECAN, Infinite M1000) at 540 nm. The percentage of living cells was calculated using the formula: OD (treated cells)*100/OD (control cells). The IC50 values were calculated using the programme Graph Pad Prism® 3.0.
Data from the in vitro tests were used for estimating the starting dose for acute oral systemic toxicity tests in rodents. […] The value is recalculated to mg/kg and compounds are evaluated in accordance with four toxicity categories: category 1: LD50≤5 mg/kg (highly toxic); category 2: 5<LD50≤50 mg/kg (moderately toxic); category 3: 50<LD50≤300 mg/kg (slightly toxic); category 4: 300<LD50≤2 000 mg/kg (practically non-toxic).

Row | Structure (SMILES) | IC50 ([1]; Homo sapiens, A549, 72 h) [µM] | IC50 ([2]; MTT) [µM] | IC50 [3] [µM] | IC50 [4] [µM] | IC50 [5] [µM] | IC50 [6] [µM] | IC50 [7] [µM] | IC50 [8] [µM] | IC50 ([9]; Homo sapiens, SH-SY5Y) [µM] | LD50 at 24 h [10] | IC50 at 24 h [10] [µM] | IC50 [1] [µM] | IC50 [9] [µM] | IC50 [2] [µM]
1 | COC1(c2[se]c3c(ccc4cc(C(=O)O[C@H]5CC[C@@]6(C)C(=CC[C@H]7[C@@H]8CC[C@H]([C@H](C)CCCC(C)C)[C@@]8(C)CC[C@@H]76)C5)c(=O)oc43)c2Br)CCCCC1 [Compound I-18, (3S,8S,9S,10R,13R,14S,17R)-10,13-Dimethyl-17-((R)-6-methylheptan-2-yl)-2,3,4,7,8,9,10,11,12,13,14,15,16,17-tetradecahydro-1H-cyclopenta[a]phenanthren-3-yl-7-bromo-8-(1-methoxycyclohexyl)-2-oxo-2H-selenopheno[3,2-h]chromene-3-carboxylate] | > 117 | > 117 | > 117 | > 117 | > 117 | > 117 | > 117 | > 117 | > 117 | 3700 µmol/kg and 3190 mg/kg | > 117 | – | – | –
2 | COC(=O)c1cc2ccc3c(Br)c(CN4CCCCC4)[se]c3c2oc1=O [Compound I-8, Methyl 7-bromo-2-oxo-8-(piperidin-1-ylmethyl)-2H-selenopheno[3,2-h]chromene-3-carboxylate] | 115 ± 8 | > 122 | > 192 | 181 ± 9 | 165 ± 5 | > 192 | > 117 | 46 ± 3 | > 192 | > 3900 µmol/kg and > 2000 mg/kg | 54 ± 3 | – | – | –
3 | COC(=O)c1cc2ccc3c(Br)c(C(C)(C)O)[se]c3c2oc1=O [Compound I-1, Methyl 7-bromo-8-(2-hydroxypropan-2-yl)-2-oxo-2H-selenopheno[3,2-h]chromene-3-carboxylate] | 196 ± 9 | > 225 | 225 ± 11 | > 117 | 221 ± 13 | 95 ± 8 | 95 ± 9 | > 122 | 32 | > 6000 µmol/kg and > 2660 mg/kg | 225 ± 11 | – | – | –
4 | COC(=O)c1cc2ccc3c(Br)c(C4=CCCC4)[se]c3c2oc1=O [Compound I-2, Methyl 7-bromo-8-(cyclopent-1-en-1-yl)-2-oxo-2H-selenopheno[3,2-h]chromene-3-carboxylate] | 122 ± 8 | 82 ± 8 | 110 ± 12 | 197 ± 24 | 281 ± 12 | 142 ± 12 | 155 ± 3 | > 235 | > 117 | 500 µmol/kg and 194 mg/kg | > 235 | – | – | –
5 | COC(=O)c1cc2ccc3c(Br)c(C4(O)CCCCC4)[se]c3c2oc1=O [Compound I-3, Methyl 7-bromo-8-(1-hydroxycyclohexyl)-2-oxo-2H-selenopheno[3,2-h]chromene-3-carboxylate] | ≤ 19 | 186 ± 9 | 27 ± 1 | > 117 | 29 ± 2 | 64 ± 6 | 66 ± 3 | 33 ± 6 | ≤ 19 | > 5600 µmol/kg | 207 ± 9 | 19 ± 2 | 19 ± 3 | –
6 | CC(C)CCC[C@@H](C)[C@H]1CC[C@H]2[C@@H]3CC=C4C[C@@H](OC(=O)c5cc6ccc7c(Br)c(C8=CCCCC8)[se]c7c6oc5=O)CC[C@]4(C)[C@H]3CC[C@]12C [Compound I-17, (3S,8S,9S,10R,13R,14S,17R)-10,13-Dimethyl-17-((R)-6-methylheptan-2-yl)-2,3,4,7,8,9,10,11,12,13,14,15,16,17-tetradecahydro-1H-cyclopenta[a]phenanthren-3-yl-7-bromo-8-(cyclohex-1-en-1-yl)-2-oxo-2H-selenopheno[3,2-h]chromene-3-carboxylate] | > 117 | – | > 117 | > 117 | > 117 | – | > 117 | – | > 117 | 3000 µmol/kg and 2450 mg/kg | > 117 | – | – | –
7 | CCCCCCCCCCOC(=O)c1cc2ccc3c(Br)c(C4(O)CCCCC4)[se]c3c2oc1=O [Compound I-7] | > 164 | 81 ± 2 | > 164 | 151 ± 6 | 48 ± 13 | 152 ± 9 | > 164 | > 164 | > 117 | > 3300 µmol/kg and > 2000 mg/kg | > 164 | – | – | –
8 | COC1(c2[se]c3c(ccc4cc(C(=O)N5CCOCC5)c(=O)oc43)c2Br)CCCCC1 [Compound I-22, 7-Bromo-8-(1-methoxycyclohexyl)-3-(morpholine-4-carbonyl)-2H-selenopheno[3,2-h]chromen-2-one] | 43 ± 4 | 39 ± 3 | 38 ± 2 | 47 ± 2 | 18 ± 2 | 43 ± 3 | 41 ± 2 | 37 ± 1 | 98 ± 3 | 300 µmol/kg and 195 mg/kg | 47 ± 4 | – | – | –
9 | COC(=O)c1cc2ccc3c(Br)c(C4(OC)CCCCC4)[se]c3c2oc1=O [Compound I-4, Methyl 7-bromo-8-(1-methoxycyclohexyl)-2-oxo-2H-selenopheno[3,2-h]chromene-3-carboxylate] | > 201 | 95 ± 2 | 52 ± 5 | 103 ± 5 | 46 ± 14 | 103 ± 4 | 201 ± 5 | 446 ± 6 | > 117 | 1100 µmol/kg and 548 mg/kg | 198 ± 2 | – | – | –
10 | CCCCCCCCOC(=O)c1cc2ccc3c(Br)c(C4=CCCCC4)[se]c3c2oc1=O [Compound I-16, Octyl 7-bromo-8-(cyclohex-1-en-1-yl)-2-oxo-2H-selenopheno[3,2-h]chromene-3-carboxylate] | > 117 | – | > 117 | > 177 | > 117 | > 122 | > 117 | > 122 | > 117 | 876 mg/kg | > 177 | – | – | –
11 | COC1(c2[se]c3c(ccc4cc(C(=O)O)c(=O)oc43)c2Br)CCCCC1 [Compound I-12, 7-Bromo-8-(1-methoxycyclohexyl)-2-oxo-2H-selenopheno[3,2-h]chromene-3-carboxylic acid] | 61 ± 1 | – | 51 ± 2 | 97 ± 7 | 141 ± 10 | 127 ± 12 | > 206 | > 206 | 193 ± 2 | 300 µmol/kg and 134 mg/kg | 213 ± 7 | – | – | 134 ± 6
12 | COCCN(CCOC)C(=O)c1cc2ccc3c(Br)c(C4=CCCCC4)[se]c3c2oc1=O [Compound I-21, 7-Bromo-8-(cyclohex-1-en-1-yl)-N,N-bis(2-methoxyethyl)-2-oxo-2H-selenopheno[3,2-h]chromene-3-carboxamide] | 61 ± 6 | 100 ± 8 | 51 ± 1 | 51 ± 7 | 92 ± 12 | 76 ± 4 | 73 ± 3 | 46 ± 6 | 139 ± 6 | 700 µmol/kg and 384 mg/kg | 131 ± 7 | – | – | –

Reference: patent US10561681B2, “Antimetastatic 2H-selenopheno[3,2-h]chromenes, synthesis thereof, and methods of using same agents” (Latvian Institute of Organic Synthesis, priority 2016, dated 2020)
